According to article PMC10252989, “Significance of Astragaloside IV from the Roots of Astragalus mongholicus as an Acetylcholinesterase Inhibitor—From the Computational and Biomimetic Analyses to the In Vitro and In Vivo Studies of Safety” (International Journal of Molecular Sciences, 2023):

What was measured:
[1] = Biomimetic HPLC lipophilicity determination, IAM column; format: physicochemical; details: for s (slope of Soczewiński-Wachtmeister equation): ACN-phosphate buffer pH 7.4; for logkw: ACN-phosphate buffer pH 7.4, retention factor extrapolated to pure water
From the text: (§1) To determine lipophilicity of the tested astragalosides, the biomimetic-High Performance Liquid Chromatography (HPLC) systems with a cholesterol-bound (CHOL) stationary phase as well as the Immobilized Artificial Membrane (IAM) column were used. These stationary phases have pseudomembrane properties and therefore are widely applied in chromatographic practice to determine lipophilicity of various groups of compounds, including newly synthesized ones.
(§2) Based on the Soczewiński–Wachtmeister Equation (1), the logarithms of retention factors extrapolated to pure water (logkw) values were calculated. These values can be considered as an alternative to the n-octanol/water partition coefficient recognized as the lipophilicity descriptor [31]. logk = logkw − sφ(1) where logk is the logarithm of the retention factor in the mixed effluent systems; φ is the volume fraction of organic modifier in the mobile phase; s is the slope characteristic of a given solute in the chromatographic system.
(§3) The Shimadzu Vp liquid chromatographic system (Shimadzu, Kyoto, Japan) equipped with an LC 10AT pump, an SPD 10A UV-Vis detector, an SCL 10A system controller, a CTO-10 AS chromatographic oven and a Rheodyne injector valve with a 20 µL loop was applied in the HPLC measurements.
(§4) The solutions of the isolated A IV as well as pharmacopoeial standards of A I–A III were prepared in methanol (Merck, Darmstadt, Germany; p.a.) at a concentration of 1 mg/mL. […] The optimization process of the chromatographic separation was made before the experiment. The flow rate of the mobile phases was established to be 1 mL/min and the temperature was set at 20 °C. The tested compounds were detected with UV light at λ = 203 nm.
(§5) The IAM.PC.DD2 column (IAM; 100 × 4.6 mm i.d., 10 µm; Regis Technologies, Morton Grove, IL, USA) and cholesterol-bonded (CHOL; Cosmosil; 75 × 2 mm i.d., 2.5 µm; Genore, Warsaw, Poland) were used as the stationary phase while the buffered solutions of acetonitrile (ACN) were used as mobile phases. In each measurement the composition of the mobile phases was: 0.3; 0.4; 0.5; 0.6 v/v ACN-buffer. The buffer was prepared from solutions of both Na2HPO4 (0.02 mol/dm^3) and citric acid (0.01 mol/dm^3).
(§6) The dead-time values were measured from the citric acid peaks. All the reported logarithms of the retention factors were measured three times.

[2] = Biomimetic HPLC lipophilicity determination, cholesterol-bound column; format: physicochemical; details: CHOL column; for s (slope of Soczewiński-Wachtmeister equation): ACN-phosphate buffer pH 7.4; for logkw: ACN-phosphate buffer pH 7.4, retention factor extrapolated to pure water
From the text: as §1, §2, §3, §4, §5, §6

[3] = biological target: acetylcholinesterase (AChE) enzyme (Homo sapiens, UniProt P22303); assay: TLC bioautography assay for inhibition of acetylcholinesterase; format: biochemical; details: amount of compound per spot
Description: In this study, the reference compounds of astragalosides II (A II), III (A III) and IV (A IV) at different concentrations were injected into the normal phase TLC plate covered with silica gel. Each experiment was repeated three times and the average values of the obtained peak areas corresponding to different injections of pure astragalosides were taken for the calculation of IC50 values of the saponins. For the three astragalosides: II, III and IV the following calibration curve equations were obtained: y = 70,773,628.9063x − 62,644.2995 (R^2 = 0.9732), y = 33,106,972.8125x − 67,429.4097 (R^2 = 0.9771), and y = 48,308,195.3125x + 3538.3021 (R^2 = 0.9981), respectively.
The TLC-bioautography method was used to determine the IC50 values of the tested saponins. Owing to the application of this technique, bright spots of active compounds were registered against the dark background. The TLC chromatogram was obtained on aluminium-covered normal phase TLC plates (Merck, Darmstadt, Germany, silica gel 60 F254).
To calculate the strength of the astragalosides, the IC50 values were determined for astragalosides II, III, and IV. For this purpose, 1 mg/mL solutions of all pure compounds were sprayed on the TLC plate using the Camag Linomat 5 (Muttenz, Switzerland) with the decreasing volumes in the range of 0.002–0.008 mg of compounds per spotevery 1 cm.
Later the TLC plate was subjected to the TLC-bioautography assay towards inhibitory properties against the AChE enzymeas described previously. Briefly, first the TLC plates were sprayed with asolution of 30 mg/20 mL of 1-naphtyl acetate. […] The chromatogram was analysed by the WinCats (v. 1.4, Camag) program and the peak areas of every spot were determined. Based on the numerical values obtained corresponding to the intensity of discoloured zones measured with the peak areas, the calibration curves were determined and the IC50 values were calculated as half of the peak area from the biggest spot that stayedwithin the linearity range area.

[4] = test system: SH-SY5Y human neuroblastoma cell line; assay: In vitro cytotoxicity test (MTT); format: cell-based; details: for cell viability versus control group (saline): 24 h, MTT
Description: The SH-SY5Y human neuroblastoma cell lines (ATCC CRL-2266) were maintained in a1:1 mixture of Eagle’s Minimum Essential Medium and F12 Medium, supplemented with 10% (v/v) of foetal bovine serum. The cells were grown at 37 °C in a humidified incubator with 5% CO2.
The viability of SH-SY5Y cells was evaluated based on the reduction of the yellow tetrazolium salt (3-(4,5-dimethylthiazol-2-yl)-2,5-diphenyltetrazolium bromide or MTT) to the purple formazan crystals by the metabolically active cells. The cells were seeded onto the 96-well plates at the density of 10,000 cells/well, grown overnight and treated with astragaloside IV at 6, 12.5 or 25 μg/mL. Following 24 h of incubation the medium was replaced with 200 µL of fresh medium containing MTT (final concentration 0.5 mg/mL) and the cells were incubated for a further 4 h at 37 °C. The precipitated formazan was dissolved in 100 µL DMSO and the absorbance of the samples was measured at λ = 540 nm. The mean absorbance measured for the control cells, treated with the solvent (saline), was set to 100% cellular viability and used to calculate the percent of viable cells under each experimental condition.

[5] = test system: zebrafish (Danio rerio) embryos; assay: Zebrafish embryo acute toxicity test (OECD Test No. 236); format: in vivo
Description: Zebrafish (Danio rerio) embryos were obtained from the Experimental Medicine Centre, Medical University of Lublin, Poland. The animals were kept in an incubator under the appropriate environmental conditions (28.5 ± 0.5 °C, light/dark cycle: 14/10 h) up to 96 h post-fertilization (hpf). For the studies, the National Institutes of Health Guide for the Care and Use of Laboratory Animals (Directive 2010/63/EU) was applied. Thus, for the yolk-feeding larvae up to 120 hpf ethical approval is not required. Nevertheless, all attempts were made to minimize the number of animals and their suffering. Immediately after the experiments, the larval zebrafish were euthanized in […] tricaine solution.
In order to assess the effect of astragaloside IV on the developing organism, the zebrafish embryo acute toxicity test was carried out according to the Organization for Economic Cooperation and Development recommendation for the testing of chemicals (Test No. 236) as described previously. One hour after fertilization, viable, perfectly spherical and completely transparent embryos were selected and transferred to 12 well plates (Sarstedt, Germany). The embryos were randomly divided into control and experimental groups. The embryos were kept in each well until the appropriate stage of development was reached of 96 hpf. Two batches of embryos (3 wells per batch, n = 5–6 per well) were kept in 3 mL of zebrafish E3 medium without treatment, i.e., the control group and that was supplemented with 25 µg/mL of astragaloside IV, i.e., the experimental group. Mortality was assessed after 23, 47, 71 and 95 h of exposition. Hatchability was evaluated after 71 and 95 h of exposition. Morphological abnormalities were scored after 95 h of exposition: heartbeat, heart oedema, yolk sac utilization/necrosis, jaw development, eye size, body axis and haemorrhage. Furthermore, to assess muscle function and performance, the touch-evoked response was performed by slight touching of the tail with metal tweezers. The criteria for the larval response were as follows: absent, decreased and normal, as described in detail in our previous paper.
The obtained data were pooled together. The Chi-squared test or the Fisher’s exact test was used for statistical purposes.

[6] = post-mortem brain tissues of mice; cited from earlier work

Chain of acetylcholinesterase (AChE) enzyme (P22303 32-614): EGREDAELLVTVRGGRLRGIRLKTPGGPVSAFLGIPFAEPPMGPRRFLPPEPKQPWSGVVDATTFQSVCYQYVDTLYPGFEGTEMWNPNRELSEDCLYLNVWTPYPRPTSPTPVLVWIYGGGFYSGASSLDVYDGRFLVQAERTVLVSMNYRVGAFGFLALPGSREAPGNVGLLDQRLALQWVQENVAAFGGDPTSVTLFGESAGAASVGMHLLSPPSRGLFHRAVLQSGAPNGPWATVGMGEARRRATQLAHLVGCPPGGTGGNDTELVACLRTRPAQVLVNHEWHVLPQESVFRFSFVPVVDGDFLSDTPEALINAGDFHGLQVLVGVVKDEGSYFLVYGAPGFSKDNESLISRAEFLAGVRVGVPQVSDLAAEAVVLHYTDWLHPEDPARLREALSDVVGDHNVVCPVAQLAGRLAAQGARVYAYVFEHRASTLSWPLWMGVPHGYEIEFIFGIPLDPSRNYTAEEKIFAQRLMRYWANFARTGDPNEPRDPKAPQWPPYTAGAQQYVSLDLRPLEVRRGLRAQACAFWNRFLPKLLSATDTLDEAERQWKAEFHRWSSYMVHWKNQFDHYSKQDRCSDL

Row | Structure (SMILES) | s (slope of Soczewiński-Wachtmeister equation) [1] | logkw [1] | s (slope of Soczewiński-Wachtmeister equation) [2] | logkw [2] | IC50 [3] | cell viability versus control group (saline) ([4]; 25 μg/mL) | cell viability versus control group (saline) ([4]; 6 and 12.5 μg/mL) | decrease in cellular SH-SY5Y viability ([4]; all analysed conditions (6, 12.5, 25 μg/mL)) | mortality rate versus control ([5]; 25 µg/mL, 1, 2, 3 and 4 dpf, p > 0.05) | larval hatchability ([5]; 25 µg/mL, 3- and 4-day-old fish, p > 0.05) | scored morphological abnormalities versus control ([5]; 25 µg/mL, 95 h exposition) | touch-evoked response ([5]; 25 µg/mL, 95 h exposition) | logBB [6]
1 | CC(=O)OC1C(O)COC(OC2CCC34CC35CCC3(C)C(C6(C)CCC(C(C)(C)O)O6)C(O)CC3(C)C5CC(OC3OC(CO)C(O)C(O)C3O)C4C2(C)C)C1OC(C)=O (stereo not drawn) [A I, Astragaloside I] | 6.040 | 2.713 | 5.590 | 3.234 |  |  |  |  |  |  |  |  | 
2 | CC(=O)O[C@H]1[C@H](O[C@H]2CC[C@]34C[C@]35CC[C@]3(C)[C@@H]([C@@]6(C)CC[C@@H](C(C)(C)O)O6)[C@@H](O)C[C@@]3(C)[C@@H]5C[C@H](O[C@@H]3O[C@H](CO)[C@@H](O)[C@H](O)[C@H]3O)[C@H]4C2(C)C)OC[C@@H](O)[C@@H]1O [A II, Astragaloside II] | 4.715 | 2.104 | 6.570 | 3.209 | 0.00488 mg |  |  |  |  |  |  |  | 
3 | CC(C)(O)[C@@H]1CC[C@](C)([C@H]2[C@@H](O)C[C@@]3(C)[C@@H]4C[C@H](O)[C@H]5C(C)(C)[C@@H](O[C@@H]6OC[C@@H](O)[C@H](O)[C@H]6O[C@@H]6O[C@H](CO)[C@@H](O)[C@H](O)[C@H]6O)CC[C@@]56C[C@@]46CC[C@]23C)O1 [A III, Astragaloside III] | 4.165 | 1.807 | 5.681 | 2.627 | 0.0033 mg |  |  |  |  |  |  |  | 
4 | CC(C)(O)[C@@H]1CC[C@](C)([C@H]2[C@@H](O)C[C@@]3(C)[C@@H]4C[C@H](O[C@@H]5O[C@H](CO)[C@@H](O)[C@H](O)[C@H]5O)[C@H]5C(C)(C)[C@@H](O[C@@H]6OC[C@@H](O)[C@H](O)[C@H]6O)CC[C@@]56C[C@@]46CC[C@]23C)O1 [A IV, Astragaloside IV] | 3.965 | 1.727 | 6.000 | 2.668 | 0.00316 mg | slightly lower | slightly higher | no significant decrease | no difference | did not affect | no difference | normal | 0.49
